Results as given in PMC12081497, “Design, synthesis, and anti-breast cancer activity evaluation of novel 3-cyanopyridine derivatives as PIM-1 inhibitors” (Molecular Diversity, 2024).
Like-named read-outs stand apart in the source and are kept apart here.

Columns and labels:
[1] = test system: MCF-7 human cancer cell line; test: In vitro anti-proliferative MTT assay; assay type: cell-based
Method: In the present study, all synthesized cyanopyridine hybrids were subjected to in vitro cytotoxicity testing using the MTT assay method against MCF-7 human cancer.
All cell lines were maintained in RPMI1640 medium containing 10% FBS at 37 °C in 5% CO2 humidified incubator. Cell proliferation assay was determined by the MTT (3-[4,5-dimethyl-2-thiazolyl]-2,5- diphenyl-2H-tetrazolium bromide) method. Briefly, cells were plated in triplicate wells (3–5 × 10^4 cells/well) of 96-well flat-bottomed plates and incubated overnight prior to drug exposure and then treated with different concentrations of the tested compounds for 48 h. After that, 20 μL of MTT reagent at a final concentration of 0.5 mg/mL was added to each well. Cells were then incubated for 2 h with MTT, after which 100 μL of DMSO solution was added to dissolve the formazan salt resulting from the reduction of MTT and the absorbance was read at 570 nm using an automatic plate reader. The IC50 values were calculated according to inhibition ratios from three independent experiments.

PIM-1 kinase = target: T1, PIM-1 kinase (Homo sapiens, UniProt P11309); settings: cited from earlier work
T1 construct: purchased Promega V4032

[2] = Homo sapiens, MCF7, 48 h, MTT, MCF-7, 48 h treatment, read-out: Cytotoxicity IC50, SD (±), MCF7
[3] = MTT, MCF-7, 48 h treatment, read-out: Cytotoxicity IC50, SD (±), MCF7

T1 sequence (P11309 whole entry): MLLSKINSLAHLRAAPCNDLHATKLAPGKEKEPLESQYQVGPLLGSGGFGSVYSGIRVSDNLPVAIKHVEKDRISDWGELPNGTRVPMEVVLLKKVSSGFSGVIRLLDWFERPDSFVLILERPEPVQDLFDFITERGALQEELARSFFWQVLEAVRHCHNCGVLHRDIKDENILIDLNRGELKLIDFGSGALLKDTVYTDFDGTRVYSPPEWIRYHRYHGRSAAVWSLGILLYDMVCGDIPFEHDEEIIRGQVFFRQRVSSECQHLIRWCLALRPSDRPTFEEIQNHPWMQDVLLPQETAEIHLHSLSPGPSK

Row | melting point | Molecule | IC50 [1, 2] | IC50 [1, 3] | IC50 (PIM-1 kinase) | IC50 [1]
1 | > 300 °C | COc1cc(-c2cc(-c3ccc4ccccc4c3)[nH]c(=O)c2C#N)ccc1OCC(=O)Nc1ccccc1 [7j, 2-(4-(3-Cyano-6-(naphthalen-2-yl)-2-oxo-1,2-dihydropyridin-4-yl)-2-methoxyphenoxy)-N-phenylacetamide] | 20.1 ± 0.83 µM |  |  | 
2 |  | COc1cccc(-c2cc(-c3ccc(OCC(=O)Nc4ccccc4)c(OC)c3)c(C#N)c(=O)n2C)c1 [9b, 2-(4-(3-Cyano-6-(3-methoxyphenyl)-1-methyl-2-oxo-1,2-dihydropyridin-4-yl)-2-methoxyphenoxy)-N-phenylacetamide] | 8.79 ± 0.36 µM | 8.8 ± 0.36 µM |  | 
3 |  | COc1cc(-c2cc(-c3ccncc3)[nH]c(=O)c2C#N)ccc1OCC(=O)Nc1ccccc1 [7i, 2-(4-(3-Cyano-2-oxo-6-(pyridin-4-yl)-1,2-dihydropyridin-4-yl)-2-methoxyphenoxy)-N-phenylacetamide] | 23.9 ± 0.98 µM |  |  | 
4 | 158 to 160 °C | COc1cccc(-c2cc(-c3ccc(OCC(=O)Nc4ccccc4)c(OC)c3)c(C#N)c(OC)n2)c1 [8b, 2-(4-(3-Cyano-2-methoxy-6-(3-methoxyphenyl)-pyridin-4-yl)-2-methoxy-phenoxy)-N-phenylacetamide] | 36.2 ± 1.49 µM |  |  | 
5 | 293 to 295 °C | COc1cc(-c2cc(-c3cccs3)[nH]c(=O)c2C#N)ccc1OCC(=O)Nc1ccccc1 [7g, 2-(4-(3-Cyano-2-oxo-6-(thiophen-2-yl)-1,2-dihydropyridin-4-yl)-2-methoxyphenoxy)-N-phenylacetamide] | 1.92 ± 0.08 µM | 1.93 ± 0.08 µM |  | 
6 |  | N#CC1=C(c2cc3ccccc3nc2Cl)C=C(c2ccc(Br)cc2)NC1Cl (stereo not drawn) [C] |  |  | 0.46 µM | 
7 |  | COc1cc(-c2cc(-c3ccc(Br)cc3)nc(OC)c2C#N)ccc1OCC(=O)Nc1ccccc1 [8e, 2-(4-(6-(4-Bromophenyl)-3-cyano-2-methoxypyridin-4-yl)-2-methoxyphenoxy)-N-phenylacetamide] | 42.6 ± 1.75 µM |  |  | 
8 |  | COc1cccc2c1C(=O)c1c(O)c3c(c(O)c1C2=O)C[C@@](O)(C(=O)CO)C[C@@H]3O[C@H]1C[C@H](N)[C@H](O)[C@H](C)O1 [Doxorubicin, reference compound] | 11.5 ± 0.47 µM | 11.5 ± 0.47 µM |  | 
9 |  | COc1cc(-c2cc(-c3ccc(Br)cc3)n(C)c(=O)c2C#N)ccc1OCC(=O)Nc1ccccc1 [9e, 2-(4-(6-(4-Bromophenyl)-3-cyano-1-methyl-2-oxo-1,2-dihydropyridin-4-yl)-2-methoxyphenoxy)-N-phenylacetamide] | 18.3 ± 0.75 µM |  |  | 
10 | 188 to 190 °C | COc1ccc(-c2cc(-c3ccc(OCC(=O)Nc4ccccc4)c(OC)c3)c(C#N)c(OC)n2)cc1 [8c, 2-(4-(3-Cyano-2-methoxy-6-(4-methoxyphenyl)pyridin-4-yl)-2-methoxyphenoxy)-N-phenylacetamide] | 3.74 ± 0.15 µM | 3.75 ± 0.15 µM |  | 
11 | 170 to 172 °C | COc1cc(-c2cc(-c3ccco3)n(C)c(=O)c2C#N)ccc1OCC(=O)Nc1ccccc1 [9g, 2-(4-(3-Cyano-6-(furan-2-yl)-1-methyl-2-oxo-1,2-dihydropyridin-4-yl)-2-methoxyphenoxy)-N-phenylacetamide] | 13.2 ± 0.54 µM |  |  | 
12 |  | COc1cccc(-c2cc(-c3ccc(OCC(=O)Nc4ccccc4)c(OC)c3)c(C#N)c(=O)[nH]2)c1 [7b, 2-(4-(3-Cyano-6-(3-methoxyphenyl)-2-oxo-1,2-dihydropyridin-4-yl)-2methoxyphenoxy)-N-phenylacetamide] | 56.8 ± 2.34 µM |  |  | 
13 | 178 to 180 °C | COc1cc(-c2cc(-c3ccco3)nc(OC)c2C#N)ccc1OCC(=O)Nc1ccccc1 [8g, 2-(4-(3-Cyano-6-(furan-2-yl)-2-methoxypyridin-4-yl)-2-methoxyphenoxy)-N-phenyl acetamide] | 21.3 ± 0.87 µM |  |  | 
14 |  | COc1ccc(-c2cc(-c3ccc(OCC(=O)Nc4ccccc4)c(OC)c3)c(C#N)c(=O)n2C)cc1 [9c, 2-(4-(3-Cyano-6-(4-methoxyphenyl)-1-methyl-2-oxo-1,2-dihydropyridin-4-yl)-2-methoxyphenoxy)-N-phenylacetamide] | 26.1 ± 1.07 µM |  |  | 
15 |  | COc1cc(-c2cc(-c3ccccc3)n(C)c(=O)c2C#N)ccc1OCC(=O)Nc1ccccc1 [9a, 2-(4-(3-Cyano-1-methyl-2-oxo-6-phenyl-1,2-dihydropyridin-4-yl)-2-methoxyphenoxy)-N-phenylacetamide] | 9.1 ± 0.37 µM | 9.1 ± 0.37 µM |  | 
16 |  | 2-(4-(3-Cyano-2-oxo-6-phenyl-1,2-dihydropyridin-4-yl)-2-methoxyphenoxy)-N-phenylacetamide [8a] |  |  |  | 14.3 ± 0.59 µM
17 | 193 to 195 °C | COc1cc(-c2cc(-c3ccc4ccccc4c3)n(C)c(=O)c2C#N)ccc1OCC(=O)Nc1ccccc1 [9f, 2-(4-(3-Cyano-1-methyl-6-(naphthalen-2-yl)-2-oxo-1,2-dihydropyridin-4-yl)-2-methoxyphenoxy)-N-phenylacetamide] | 41.4 ± 1.7 µM |  |  | 
18 |  | COc1nc(-c2ccc(OCc3ccccc3)cc2)cc(-c2ccc(N(C)C)cc2)c1C#N [F] |  |  | 0.13 µM | 
19 |  | 2-(4-(6-(4-Chlorophenyl)-3-cyano-2-oxo-1,2-dihydropyridin-4-yl)-2-methoxyphenoxy)-N-phenylacetamide [8d] |  |  |  | 18 ± 0.74 µM
20 | 193 to 195 °C | COc1cc(-c2cc(-c3ccc4ccccc4c3)nc(OC)c2C#N)ccc1OCC(=O)Nc1ccccc1 [8f] |  |  |  | 
21 |  | 2-(4-(6-(4-Chlorophenyl)-3-cyano-2-oxo-1,2-dihydropyridin-4-yl)-2-methoxyphenoxy)-N-phenylacetamide [9d] |  |  |  | 2.05 µM
22 | 276 to 278 °C | COc1cc(-c2cc(-c3ccccc3)[nH]c(=O)c2C#N)ccc1OCC(=O)Nc1ccccc1 [7a, 2-(4-(3-Cyano-2-oxo-6-phenyl-1,2-dihydropyridin-4-yl)-2-methoxyphenoxy)-Nphenylacetamide] | 8.06 ± 0.33 µM | 8.06 ± 0.33 µM |  | 
23 |  | COc1cc(-c2cc(-c3ccc(Br)cc3)[nH]c(=O)c2C#N)ccc1OCC(=O)Nc1ccccc1 [7e, 2-(4-(6-(4-Bromophenyl)-3-cyano-2-oxo-1,2-dihydropyridin-4-yl)-2-methoxyphenoxy)-N-phenylacetamide] | 21.9 ± 0.9 µM |  |  | 
24 | 276 to 278 °C | COc1cc(-c2cc(-c3ccc(Cl)cc3)[nH]c(=O)c2C#N)ccc1OCC(=O)Nc1ccccc1 [7d, 2-(4-(6-(4-Chlorophenyl)-3-cyano-2-oxo-1,2-dihydropyridin-4-yl)-2methoxyphenoxy)-N-phenylacetamide] | 41.1 ± 1.69 µM |  |  | 
25 | 284 to 286 °C | COc1ccc(-c2cc(-c3ccc(OCC(=O)Nc4ccccc4)c(OC)c3)c(C#N)c(=O)[nH]2)cc1 [7c, 2-(4-(3-Cyano-6-(4-methoxyphenyl)-2-oxo-1,2-dihydropyridin-4-yl)-2-methoxyphenoxy)-N-phenylacetamide] | 7.72 ± 1.69 µM | 7.73 ± 0.32 µM |  | 
26 | 284 to 286 °C | COc1cc(-c2cc(-c3ccc[n+](C)c3)nc(OC)c2C#N)ccc1OCC(=O)Nc1ccccc1.[I-] [compound 10, 5-cyano-6-methoxy-4-(3-methoxy-4-(2-oxo-2-(phenylamino)ethoxy)phenyl)-1'-methyl-2,3'-bipyridin-1'-iumiodide] | 2.13 ± 0.09 µM | 2.14 ± 0.09 µM |  | 
27 | 296 to 298 °C | COc1cc(-c2cc(-c3ccco3)[nH]c(=O)c2C#N)ccc1OCC(=O)Nc1ccccc1 [7f, 2-(4-(3-Cyano-6-(furan-2-yl)-2-oxo-1,2-dihydropyridin-4-yl)-2-methoxyphenoxy)-N-phenylacetamide] | 3.98 µM | 3.98 ± 0.16 µM |  | 
